Test results as given in patent US20240103011A1, “LIQUID BIOPSY YIELD ENHANCEMENT” (priority 2021, published 2024).
Where two headings read alike, the source gives them in different places.

Tests used:
[1] = test system: HSC; conditions: in vivo; cited from earlier work
[2] = test system: T cell lymphoma; conditions: T cell lymphoma/Partial remission
Description: (§1) A sample from the subjects is collected at the time of diagnosis (“baseline sample”) and analyzed for tumor mutational burden (TMB) and microsatellite instability (MSI). Subjects are then administered a single dose of plerixafor (10-20 mg), a single dose of motixafortide (0.5-2 mg/kg), a single dose of MGTA-145 (0.0075-0.3 mg/kg), or a single dose of MGTA-145 (0.0075-0.3 mg/kg) in combination with a single dose of plerixafor (0.24 mg/kg), and blood sample collected 1-72 hours later. This blood sample (“LBYE+ sample”) is analyzed for TMB and MSI.
(§2) The change/difference of biomarker detected in the LBYE+ sample and the baseline sample is used by a clinician to predict treatment response and/or make treatment decision.

[3] = test system: Colon Cancer; conditions: Colon Cancer/Relapse
Description: as §1, §2

Q: With `c1cc(CN2CCCNCCNCCCNCC2)ccc1CN1CCCNCCNCCCNCC1` [Plerixafor, 1-{[4-(1,4,8,11-tetrazacyclotetradec-1-ylmethyl)phenyl]methyl}-1,4,8,11-tetrazacyclotetradecane] as the compound, how does the HSC mobilization [1] read?
A: rapidly mobilize HSC within hours

Q: What about the “VAF, LBYE+ Sample Status” value ([2]; TET2, baseline 23.80%) of the same compound?
A: 20.20%

Q: What about the “Genomic variants, LBYE+ Sample Status” value ([2]; after intervening agent, baseline TET2) of the same compound?
A: TET2

Q: What about the “TMB, LBYE+ Sample Status” value ([2]; baseline 0.4 m/MB) of the same compound?
A: 0.5 m/MB

Q: And the “MSI, LBYE+ Sample Status” value ([2]; baseline Stable)?
A: Stable

Q: And the “VAF, LBYE+ Sample Status” value ([3]; APC, baseline 7.80%)?
A: 7.30%

Q: What about the “VAF, LBYE+ Sample Status” value ([3]; TP53, baseline 6.30%) of the same compound?
A: 6.30%

Q: What about the “TMB, LBYE+ Sample Status” value ([3]; baseline 0.5 m/MB) of the same compound?
A: 1.1 m/MB

Q: What about the “MSI, LBYE+ Sample Status” value ([3]; baseline Stable) of the same compound?
A: Stable
